# From EPA's ToxRefDB 2
# Columns and labels:
# rat [1] = settings: Sub-acute repeat dose toxicity; fischer; Oral; Gavage/Intubation; dose end: 14 day; group: systemic; systemic / hematology / leukocyte (wbc) count differential / leukocyte (wbc) + systemic / hematology / nucleated red blood cell (nrbc) / …
# rat [2] = settings: Subchronic oral toxicity in rodents, fischer, Gavage/Intubation, dose end: 13 week
# rat [3] = settings: Carcinogenicity, other, Oral, Feed, dose end: 102 week, group: systemic
# rat [4] = settings: Subchronic oral toxicity in rodents, other, Feed, dose end: 10 week, group: systemic, systemic / in life observation / body weight / body weight gain
# rat [5] = settings: Multigenerational reproductive toxicity study, wistar, Oral, Feed, dose end: 2 generation
# rat [6] = settings: Prenatal developmental toxicity study, sprague dawley, Oral, Gavage/Intubation, dose end: 15 GD
# dog [7] = settings: Chronic toxicity, beagle, Oral, Capsule, dose end: 107 week, group: systemic
# rat [8] = settings: Subchronic oral toxicity in rodents, sprague dawley, Feed, dose end: 90 day
# mouse = settings: Carcinogenicity, cd1, Oral, Feed, dose end: 104 week, group: systemic
# rat [9] = settings: Combined chronic toxicity/carcinogenicity, sprague dawley, Oral, Feed, dose end: 24 month, group: systemic
# rat [10] = settings: Multigenerational reproductive toxicity study, sprague dawley, Oral, Feed, dose end: 2 generation
# rat [11] = settings: Combined chronic toxicity/carcinogenicity, sprague dawley, Oral, Feed, dose end: 24 month, group: systemic; remark: listed apart in the source
# dog [12] = settings: Chronic toxicity; beagle; Oral; Feed; dose end: 52 week; group: systemic; systemic / clinical chemistry / aspartate aminotransferase (ast/sgot) / aspartate aminotransferase (ast/sgot) + systemic / clinical …
# rat [13] = settings: Subchronic oral toxicity in rodents, sprague dawley, Feed, dose end: 90 day, group: systemic
# rat [14] = settings: Prenatal developmental toxicity study, sprague dawley, Oral, Gavage/Intubation, dose end: 15 GD; remark: listed apart in the source
# rabbit = settings: Prenatal developmental toxicity study, new zealand white, Oral, Gavage/Intubation, dose end: 19 GD
# dog [15] = settings: Subchronic oral toxicity in nonrodent, beagle, Feed, dose end: 90 day, group: systemic, systemic / hematology / leukocyte (wbc) count differential / leukocyte (wbc) + systemic / hematology / mean corpuscular hemoglobin …
# [16] = group: cholinesterase, cholinesterase / cholinesterase / cholinesterase / cholinesterase (che)
# [17] = group: systemic, systemic / hematology / hematocrit (hct) / hematocrit (hct) + systemic / hematology / hemoglobin (hgb) / hemoglobin (hgb) + systemic / in …
# [18] = group: systemic, systemic / hematology / polychromasia / polychromasia
# [19] = systemic / pathology microscopic / nose / inflammation
# [20] = group: offspring, systemic / in life observation / body weight / offspring (pup) weight gain
# [21] = group: parental, systemic / in life observation / body weight / body weight gain
# [22] = group: developmental, developmental / developmental malformation / bone / incomplete ossification + systemic / in life observation / body weight / fetal weight + …
# [23] = group: maternal, reproductive / reproductive performance / fertility / fertility + reproductive / reproductive performance / resorptions / resorptions + …
# [24] = systemic / organ weight / liver / relative to body weight
# [25] = systemic / organ weight / liver / relative to body weight + systemic / clinical chemistry / alkaline phosphatase (alp/alk) / alkaline …
# [26] = group: cholinesterase, cholinesterase / cholinesterase / cholinesterase / plasma cholinesterase (che)
# [27] = group: systemic, systemic / organ weight / thyroid gland / relative to body weight + systemic / pathology microscopic / kidney / eosinophilic focus + …
# [28] = group: systemic, systemic / pathology microscopic / kidney / eosinophilic focus + systemic / pathology microscopic / kidney / hyaline droplet
# [29] = systemic / organ weight / liver / absolute + systemic / organ weight / adrenal gland / absolute + systemic / organ weight / adrenal gland / …
# [30] = systemic / pathology microscopic / thyroid gland / hyperplasia + systemic / pathology microscopic / thyroid gland / hypertrophy + systemic…
# [31] = group: offspring, systemic / in life observation / body weight / offspring (pup) weight
# [32] = systemic / in life observation / body weight / body weight
# [33] = systemic / clinical chemistry / globulins / globulins + systemic / clinical chemistry / glucose / glucose + systemic / in life observation…
# [34] = systemic / organ weight / spleen / absolute + systemic / organ weight / spleen / relative to body weight
# [35] = group: developmental, systemic / in life observation / body weight / fetal weight + developmental / developmental malformation / bone / unossified + developmental…
# [36] = group: maternal, systemic / in life observation / body weight / body weight gain + systemic / in life observation / clinical signs / salivation + systemic / …
# [37] = group: developmental, systemic / in life observation / body weight / fetal weight + developmental / developmental malformation / other / other
# [38] = group: maternal, reproductive / reproductive performance / aborted / aborted + systemic / in life observation / food consumption / food consumption + …
compound,measurement,setting,value
"Cc1cccc(C)c1N [2,6-Dimethylaniline]",LEL,rat [1],310 mg/kg/day
same,LOAEL,rat [1],310 mg/kg/day
same,NEL,rat [1],160 mg/kg/day
same,NOAEL,rat [1],160 mg/kg/day
same,LEL,rat [2]; [16],160 mg/kg/day
same,LOAEL,rat [2]; [16],> 310 mg/kg/day
same,NEL,rat [2]; [16],80 mg/kg/day
same,NOAEL,rat [2]; [16],≥ 310 mg/kg/day
same,LOAEL,rat [2]; [17],310 mg/kg/day
same,NOAEL,rat [2]; [17],160 mg/kg/day
same,LEL,rat [2]; [18],20 mg/kg/day
same,NEL,rat [2]; [18],< 20 mg/kg/day
same,LOAEL,rat [3]; systemic / in life observation / body weight / body weight gain,50 mg/kg/day
same,NOAEL,rat [3]; systemic / in life observation / body weight / body weight gain + systemic / pathology microscopic / adrenal gland / adenoma + systemic / …,15 mg/kg/day
same,LEL,rat [3]; [19],15 mg/kg/day
same,NEL,rat [3]; [19],< 15 mg/kg/day
same,LEL,rat [4],150 mg/kg/day
same,LOAEL,rat [4],150 mg/kg/day
same,NEL,rat [4],50 mg/kg/day
same,NOAEL,rat [4],50 mg/kg/day
CC(C)N1C(=O)N(c2ccccc2)CSC1=NC(C)(C)C [Buprofezin],LEL,rat [5]; [20],81.5 mg/kg/day
same,LOAEL,rat [5]; [20],81.5 mg/kg/day
same,NEL,rat [5]; [20],7.89 mg/kg/day
same,NOAEL,rat [5]; [20],7.89 mg/kg/day
same,LEL,rat [5]; [21],81.5 mg/kg/day
same,LOAEL,rat [5]; [21],> 81.5 mg/kg/day
same,NEL,rat [5]; [21],7.89 mg/kg/day
same,NOAEL,rat [5]; [21],≥ 81.5 mg/kg/day
same,LEL,"rat [6]; group: developmental, developmental / developmental malformation / bone / incomplete ossification + developmental / developmental malformation / bone / unossified",200 mg/kg/day
same,LOAEL,rat [6]; [22],800 mg/kg/day
same,NEL,rat [6]; [22],50 mg/kg/day
same,NOAEL,rat [6]; [22],200 mg/kg/day
same,LOAEL,rat [6]; [23],800 mg/kg/day
same,NEL,rat [6]; [23],50 mg/kg/day
same,NOAEL,rat [6]; [23],200 mg/kg/day
same,LEL,"rat [6]; group: maternal, systemic / in life observation / water consumption / water consumption",200 mg/kg/day
same,LEL,dog [7]; [24],2 mg/kg/day
same,NEL,dog [7]; [24],< 2 mg/kg/day
same,LOAEL,dog [7]; [25],20 mg/kg/day
same,NOAEL,dog [7]; [25],2 mg/kg/day
same,LEL,rat [8]; [26],362 mg/kg/day
same,LOAEL,rat [8]; [26],> 362 mg/kg/day
same,NEL,rat [8]; [26],81.8 mg/kg/day
same,NOAEL,rat [8]; [26],≥ 362 mg/kg/day
same,LOAEL,rat [8]; [27],68.6 mg/kg/day
same,NOAEL,rat [8]; [27],13 mg/kg/day
same,LEL,rat [8]; [28],3.4 mg/kg/day
same,NEL,rat [8]; [28],< 3.4 mg/kg/day
same,LOAEL,mouse; systemic / organ weight / liver / absolute,17.4 mg/kg/day
same,NEL,mouse; [29],1.82 mg/kg/day
same,NOAEL,mouse; [29],1.82 mg/kg/day
same,LEL,mouse; systemic / organ weight / liver / absolute + systemic / organ weight / liver / relative to body weight,17.4 mg/kg/day
same,LOAEL,rat [9]; systemic / pathology microscopic / thyroid gland / hyperplasia + systemic / pathology microscopic / thyroid gland / hypertrophy,8.7 mg/kg/day
same,LEL,rat [9]; [30],8.7 mg/kg/day
same,NEL,rat [9]; [30],0.9 mg/kg/day
same,NOAEL,rat [9]; [30],0.9 mg/kg/day
COC(=O)c1ccccc1S(=O)(=O)NC(=O)N(C)c1nc(C)nc(OC)n1 [Tribenuron-methyl],LEL,rat [10]; [31],1.9 mg/kg/day
same,NEL,rat [10]; [31],< 1.9 mg/kg/day
same,NOAEL,rat [10]; [20],1.9 mg/kg/day
same,LOAEL,"rat [10]; group: offspring, systemic / in life observation / body weight / offspring (pup) weight gain + systemic / in life observation / body weight / offspring (pup) …",19 mg/kg/day
same,LEL,rat [10]; [21],19 mg/kg/day
same,LOAEL,rat [10]; [21],21 mg/kg/day
same,NEL,rat [10]; [21],1.9 mg/kg/day
same,NOAEL,"rat [10]; group: parental, systemic / in life observation / body weight / body weight gain + systemic / in life observation / body weight / body weight",2.2 mg/kg/day
same,LEL,rat [11]; [32],1.25 mg/kg/day
same,LOAEL,rat [11]; [32],12.5 mg/kg/day
same,NEL,rat [11]; [32],< 1.25 mg/kg/day
same,NOAEL,rat [11]; systemic / in life observation / body weight / body weight + systemic / pathology microscopic / mammary gland / adenocarcinoma + systemic / …,1.25 mg/kg/day
same,LEL,dog [12],8.16 mg/kg/day
same,LOAEL,dog [12],8.16 mg/kg/day
same,NEL,dog [12],0.79 mg/kg/day
same,NOAEL,dog [12],0.79 mg/kg/day
same,LOAEL,rat [13]; [33],118 mg/kg/day
same,NOAEL,rat [13]; [33],7 mg/kg/day
same,LEL,rat [13]; [34],8 mg/kg/day
same,NEL,rat [13]; [34],< 8 mg/kg/day
same,LOAEL,"rat [14]; group: developmental, systemic / in life observation / body weight / fetal weight + developmental / developmental malformation / bone / unossified",125 mg/kg/day
same,LEL,rat [14]; [35],125 mg/kg/day
same,NEL,rat [14]; [35],20 mg/kg/day
same,NOAEL,rat [14]; [35],20 mg/kg/day
same,LEL,rat [14]; [36],125 mg/kg/day
same,LOAEL,rat [14]; [36],125 mg/kg/day
same,NEL,rat [14]; [36],20 mg/kg/day
same,NOAEL,rat [14]; [36],20 mg/kg/day
same,LOAEL,"rabbit; group: developmental, systemic / in life observation / body weight / fetal weight",80 mg/kg/day
same,LEL,rabbit; [37],80 mg/kg/day
same,NEL,rabbit; [37],20 mg/kg/day
same,NOAEL,rabbit; [37],20 mg/kg/day
same,LOAEL,"rabbit; group: maternal, reproductive / reproductive performance / aborted / aborted + systemic / in life observation / food consumption / food consumption",80 mg/kg/day
same,LEL,rabbit; [38],80 mg/kg/day
same,NEL,rabbit; [38],20 mg/kg/day
same,NOAEL,rabbit; [38],20 mg/kg/day
same,LEL,dog [15],73.3 mg/kg/day
same,LOAEL,dog [15],> 73.3 mg/kg/day
same,NEL,dog [15],14.9 mg/kg/day
same,NOAEL,dog [15],≥ 73.3 mg/kg/day
